In US3976771A, “Glycylglycine amide preparations and method of use antiarrhythmic” (priority 1972, dated 1976):
“Also recorded” adds a separate entry of the source.

Key:
mice = experiment: Acute oral toxicity in mice; assay type: in vivo; settings: deaths during 7 days
Procedure: For determination of acute toxicity groups of 10 mice were treated orally with varying doses of compound observing the incidence of death, during a 7 days period. LD50 and LD 0.1 were calculated by means of a logarithmic-probit graph paper.

[1] = test system: ventricular fibrillation upon exposure to chloroform vapor; experiment: Protection against chloroform-induced ventricular fibrillation in mice; assay type: in vivo
Source text: The method used in mice was essentially the same as described by Lawson (J. Pham. Exp. Therap. 160, 22 (1968). Male mice (NMRI, 17-25 g) were used. Unanesthetized, untreated mice show cardiac ventricular fibrillation upon exposure to chloroform vapor. The ventricular fibrillation is abolished if the animals are pretreated with appropriate doses of known antiarrhythmic agents before exposure to chloroform.
For determination of antiarrhythmic effect groups of 10 mice were pretreated by the oral route with varying sublethal doses of compound 10 to 300 min. respectively before being placed individually in a beaker containing chloroform. The mouse was removed from the beaker at the time of respiratory arrest and the thorax opened. Examination of ventricular fibrillation was made by means of ECG-recordings (lead II). The effect of the compound was expressed as the number of animals in per cent which were protected from fibrillation.

[2] = test system: aconitine-induced arrhythmias; experiment: Protection against aconitine-induced arrhythmias in the guinea-pig; assay type: in vivo; settings: for Dose of aconitine necessary for development of ECG-changes indicating Asystolie / Dose of aconitine necessary for development of ECG-changes indicating Fibrillation / Dose of aconitine necessary for development of ECG-changes indicating Tachycardia: 15 min before aconitine infusion, mean ± standard error
Procedure: The procedure used by Vargaftig et al. (Eur. J. Pharmacol. 6, 49, 1969) was slightly modified; Guinea-pigs of both sexes (250-400 g) were anaesthetized with uretane (1 g/kg bodyweight, i.p.). A plastic tube was introduced into the trachea and a thin plastic catheter into the jugular vein. Respiration was supported by means of a Harward Rodent Respirator 680. Aconitine was infused i.v. at a rate of 3 μg/min by means of a Palmer slow injection apparatus. The ECG (lead II) was continuously monitored. The amount of aconitine (μg/kg bodyweight) injected to induce ventricular tachycardia, fibrillation and asystolie was calculated. Test compounds were given i.p. with different time intervals between injection of drug and start of aconitine infusion.

[3] = test system: ventricular arrhythmias produced by coronary artery ligation; experiment: Ventricular arrhythmias produced by coronary artery ligation in unanesthetized dogs; assay type: in vivo; settings: two dogs, constant i.v. infusion 0.5 mg/kg/min
Procedure: The effects of intravenous infusion of GEA968 was also studies on two unanesthesized dogs with ventricular arrhythmias produced by coronary artery ligation, essentially following the procedure of A. S. Harris, Circulation, Vol. I, page 1318 (1950). The two dogs with well-developed arrhythmias received a constant infusion of 0.5 mg/kg/min. of GEA968.

[4] = test system: contractility of the heart; experiment: Qualitative observation of side effects in the animal tests; assay type: in vivo; settings: preliminary indication
Source text: However, it was qualitatively observed that the side effects of the compounds of the present invention appeared to be less significant.

[5] = due to low levels of the drug in the blood; cited from earlier work
[6] = 100 mg/kg p.o., 10 min between pretreatment and chloroform vapor
[7] = 100 mg/kg p.o., 60 min between pretreatment and chloroform vapor

Structure (SMILES) | LD 0.1 (the dose which kills 0.1 % of the animals) (mice) [mg/kg bodyweight] | Toxicity LD50 p.o. (mice) [mg/kg bodyweight] | Percentage animals protected from fibrillation [1, 6] [per cent] | Percentage animals protected from fibrillation [1, 7] [per cent] | Percentage animals protected from fibrillation ([1]; 250 mg/kg p.o., 10 min) [per cent] | Percentage animals protected from fibrillation ([1]; 250 mg/kg p.o., 60 min) [per cent] | Dose of aconitine necessary for development of ECG-changes indicating Asystolie ([2]; 25 mg/kg i.p.) [μg/kg bodyweight] | Dose of aconitine necessary for development of ECG-changes indicating Fibrillation ([2]; 25 mg/kg i.p.) [μg/kg bodyweight] | Dose of aconitine necessary for development of ECG-changes indicating Tachycardia ([2]; 25 mg/kg i.p.) [μg/kg bodyweight] | Dose of aconitine necessary for development of ECG-changes indicating Asystolie ([2]; 100 mg/kg i.p.) [μg/kg bodyweight] | Dose of aconitine necessary for development of ECG-changes indicating Fibrillation ([2]; 100 mg/kg i.p.) [μg/kg bodyweight] | Dose of aconitine necessary for development of ECG-changes indicating Tachycardia ([2]; 100 mg/kg i.p.) [μg/kg bodyweight] | Percentage animals protected from fibrillation ([1]; 500 mg/kg p.o., 10 min) [per cent] | Percentage animals protected from fibrillation ([1]; 500 mg/kg p.o., 60 min) [per cent] | further results
CCN(CC)CC(=O)NCC(=O)Nc1c(C)cccc1C [GEA 968, N,N-diethylglycylglycine-2,6-xylidide] | 250 | 535 | 70 | 65 | 90 | 90 | 210 ± 12 | 155 ± 10 | 91 ± 6 | 632 ± 132 | 356 ± 32 | 225 ± 35 | – | – | Percentage animals protected from fibrillation ([1]; 54 mg/kg p.o. (one tenth of LD50), 10 min): 45 per cent; Percentage animals protected from fibrillation ([1]; 54 mg/kg p.o. (one tenth of LD50), 60 min): 55 per cent; Percentage animals protected from fibrillation ([1]; 54 mg/kg p.o. (one tenth of LD50), 300 min): 15 per cent; Percentage animals protected from fibrillation ([1]; 100 mg/kg p.o., 300 min between pretreatment and chloroform vapor): 45 per cent; Percentage animals protected from fibrillation ([1]; 250 mg/kg p.o., 300 min): 70 per cent; Antiarrhythmic effect in the chloroform test (in words) ([1]; mice, p.o.): good antiarrhythmic effects; Duration of antiarrhythmic effectiveness (in words) ([1]; mouse, in vivo): especially significant; Dose of aconitine necessary for development of ECG-changes indicating Asystolie ([2]; 50 mg/kg i.p.): 378 ± 33 μg/kg bodyweight; Dose of aconitine necessary for development of ECG-changes indicating Fibrillation ([2]; 50 mg/kg i.p.): 284 ± 25 μg/kg bodyweight; Dose of aconitine necessary for development of ECG-changes indicating Tachycardia ([2]; 50 mg/kg i.p.): 161 ± 15 μg/kg bodyweight; Antiarrhythmic effect in the aconitine test (in words) ([2]; guinea-pig, i.p.): markedly potent; also recorded: good antiarrhythmic effects; Duration of suppression of arrhythmias [3]: unusually long duration; Effect on ventricular arrhythmias [3]: suppression of the arrhythmias; Effect on contractility of the heart (qualitative) [4]: improving the contractility of the heart
CCN(CC)CC(=O)NCC(=O)NC(C)(C)c1ccccc1 [GEA 980, N^3,N^3 -diethyl-N^1 -(α,α-dimethylbenzyl) glycylglycine amide] | – | > 500 | 11 | 10 | – | – | – | – | – | – | – | – | 65 | 0 | Percentage animals protected from fibrillation ([1]; 300 mg/kg p.o., 10 min): 25 per cent; Percentage animals protected from fibrillation ([1]; 300 mg/kg p.o., 60 min): 10 per cent
CCN(CC)CC(=O)N[C@@H](C)C(=O)NC(C)(C)c1ccccc1 [GEA 981, N^3,N^3 -diethyl-N^1 -(α,α-dimethylbenzyl)glycylalanineamide] | 610 | 880 | – | – | – | – | – | – | – | – | – | – | – | – | Percentage animals protected from fibrillation ([1]; 88 mg/kg p.o. (one tenth of LD50), 10 min): 35 per cent; Percentage animals protected from fibrillation ([1]; 88 mg/kg p.o. (one tenth of LD50), 60 min): 10 per cent; Percentage animals protected from fibrillation ([1]; 610 mg/kg p.o. (LD 0.1), 10 min): 90 per cent; Percentage animals protected from fibrillation ([1]; 610 mg/kg p.o. (LD 0.1), 60 min): 45 per cent
CCN(CC)[C@@H](C)C(=O)N[C@@H](C)C(=O)NC(C)(C)c1ccccc1 [GEA 982, N^3,N^3 -diethyl-N^1 -(α,α-dimethylbenzyl)alanylalanineamide] | 210 | 660 | – | – | – | – | – | – | – | – | – | – | – | – | Percentage animals protected from fibrillation ([1]; 66 mg/kg p.o. (one tenth of LD50), 10 min): 0 per cent; Percentage animals protected from fibrillation ([1]; 66 mg/kg p.o. (one tenth of LD50), 60 min): 0 per cent; Percentage animals protected from fibrillation ([1]; 210 mg/kg p.o. (LD 0.1), 10 min): 40 per cent; Percentage animals protected from fibrillation ([1]; 210 mg/kg p.o. (LD 0.1), 60 min): 15 per cent
CCN(CC)CC(=O)NCC(=O)Nc1ccccc1 [GEA 984, N,N-diethylglycylglycine anilide] | – | > 1000 | – | – | 0 | 0 | – | – | – | 284 ± 29 | 211 ± 18 | 95 ± 9 | 70 | 10 | Percentage animals protected from fibrillation ([1]; 1000 mg/kg p.o., 10 min): 75 per cent; Percentage animals protected from fibrillation ([1]; 1000 mg/kg p.o., 60 min): 0 per cent
CCN(CC)CC(=O)Nc1c(C)cccc1C [Lidocaine, 2-diethylamino-2', 6'-acetoxylidide, reference compound] | 150 | – | – | – | – | – | 237 ± 35 | 176 ± 12 | 66 ± 7 | – | – | – | – | – | Oral antiarrhythmic effectiveness [5]: not orally effective
